Our source for the IC50 and MIC values is publication PMC9779606, “Synthesis, Structural Characterization and Biological Activity Evaluation of Novel Cu(II) Complexes with 3-(trifluoromethyl)phenylthiourea Derivatives” (International Journal of Molecular Sciences, 2022).

Converted amounts (≈) assume the structure as drawn. Read-outs that look alike come from different tables or passages of the source.

Experiment [1] has as its system SW480 (primary colon cancer). The experiment in a line: Cytotoxicity, MTT assay. In kind it is cell-based, human. Conditions: mean SD. The procedure: (§1) MTT assay was performed as previously described. Experiments were repeated three times. […] Decreased relative MTT level means decreased cell viability.
The test system of experiment [2] is SW620 (metastatic colon cancer). In words: Cytotoxicity, MTT assay. In kind it is cell-based, human. Conditions: 72 h, mean SD. The procedure: as §1
On the technique in general: Formazan colour is commonly taken as a measure of viable cells.

The test system of experiment [3] is HaCaT (immortalized human keratinocytes). The experiment in a line: Cytotoxicity, MTT assay. In kind it is cell-based. Conditions: normal cells, 72 h, mean SD. The procedure:
as §1

The next experiment has as its system M. tuberculosis H37Rv. The experiment in a line: Tuberculostatic activity, Microplate Alamar Blue Assay (MABA). Conditions: Mycobacterium tuberculosis. In kind it is cell-based, Mycobacterium tuberculosis.
Experiment [4] relates to M. tuberculosis Spec. 192. The description is as above. It counts as cell-based, Mycobacterium tuberculosis. Conditions: Mycobacterium tuberculosis.
Experiment [5] deals with 30 clinically isolated strains of S. aureus and S. epidermidis. Details: method as in PMID 28822236, PMID 29499458. Conditions: cited from earlier work.
[6] abbreviates: M. tuberculosis H37Rv, standard strain, MABA, read-out: MIC.
Setting [7] is: M. tuberculosis Spec. 192, patient isolate fully sensitive to tuberculostatics, MABA, read-out: MIC.

As to `N.N.[Cl][Pt][Cl]` [Cisplatin, cisplatin, reference compound], the values for the IC50 in experiment [1] (72 h), in experiment [2] and in experiment [3] were 10.4 µM, 6.7 ± 1.1 µM and 6.3 ± 0.7 µM, respectively.

With `COc1cccc2c1C(=O)c1c(O)c3c(c(O)c1C2=O)C[C@@](O)(C(=O)CO)C[C@@H]3O[C@H]1C[C@H](N)[C@H](O)[C@H](C)O1` [Doxorubicin, doxorubicin, reference compound], the half-inhibitory concentration (IC50) (usually the concentration that gives 50% inhibition) in experiment [1] (Homo sapiens, SW480, 72 h) was determined as 0.75 ± 0.1 µM; in experiment [3] (Homo sapiens, HaCaT), 0.29 ± 0.11 µM.

As to `CC[C@@H](CO)NCCN[C@@H](CC)CO` [Ethambutol (EMB), Ethambutol, reference compound], the MIC (in the experiment with M. tuberculosis H37Rv (setting [6]); in experiment [4] (setting [7])) was 2 mg/L (≈ 9.79 µM) throughout.

Turning to `NNC(=O)c1ccncc1` [Isoniazid (INH), Isoniazid, reference compound], the MIC (with M. tuberculosis H37Rv (H37RV); in experiment [4] (SPEC.192)) was 0.125 mg/L (≈ 0.911 µM) in each case.

Regarding `CO[C@H]1/C=C/O[C@@]2(C)Oc3c(C)c(O)c4c(O)c(c(/C=N/N5CCN(C)CC5)c(O)c4c3C2=O)NC(=O)/C(C)=C\C=C\[C@H](C)[C@H](O)[C@@H](C)[C@@H](O)[C@@H](C)[C@H](OC(C)=O)[C@@H]1C` [Rifampicin (RMP), Rifampicin, reference compound], the MIC (in the experiment with M. tuberculosis H37Rv (setting [6]); in experiment [4] (setting [7])) was 1 mg/L (≈ 1.22 µM) throughout.

`[H]/N=C(/N)N[C@H]1[C@H](O)[C@@H](O)[C@H](O[C@@H]2O[C@@H](C)[C@](O)(C=O)[C@H]2O[C@@H]2O[C@@H](CO)[C@H](O)[C@@H](O)[C@@H]2NC)[C@@H](N/C(N)=N\[H])[C@@H]1O` [Streptomycin (SM), Streptomycin, reference compound]: the MIC (in the experiment with M. tuberculosis H37Rv (setting [6]); in experiment [4] (setting [7])) was 1 mg/L (≈ 1.72 µM) throughout.

Turning to “complex with 1-1-(3,4-dichlorophenyl)-3-[3-(trifluoromethyl) phenyl]thiourea”, the MIC (commonly the lowest concentration that inhibits growth of the organism) in experiment [5] was 0.5 to 2 mg/L.
